Measured values from patent US4428936A, “Antibacterial composition for medical use” (Toyama Chemical Co., Ltd., priority 1978, dated 1984).

Experiments:
Escherichia coli GN 6299 = experiment: Growth-inhibition test with potassium clavulanate; type: cell-based; set-up: key: (+) means that the test bacterium grew; (-) means that the test bacterium did not grow; settings: T-1551 Na 0 μg/ml; potassium clavulanate alone by line b171,b173-b181: 100,(unlabelled),25,(unlabelled),6.25,(unlabelled),1.6,(unlabelled),0.4,(unlabelled) μg/ml
Method: (§1) Heart Infusion agar containing a prescribed amount of Methicillin sodium or T-1551 Na was inoculated with the test bacterium at a rate of about 10^8 cells/ml. After incubation for 18 hours at 37° C., the growth of the test bacterium was inspected.
(§2) The same operation as in Test Example 1 was repeated, except that the Methicillin sodium was replaced by potassium clavulanate and the test bacteria were replaced by those shown in Tables 6, 7 and 8, to obtain the results shown in Tables 6, 7 and 8.

[1] = system: Pseudomonas aeruginosa GN 3345; experiment: Growth-inhibition test with potassium clavulanate; type: cell-based; set-up: key: (+) means that the test bacterium grew; (-) means that the test bacterium did not grow; settings: T-1551 Na 0 μg/ml; potassium clavulanate alone by line b219-b228: 100,(unlabelled),25,(unlabelled),12.5,(unlabelled),3.1,(unlabelled),0.4,(unlabelled) μg/ml
Method: as §1, §2

[2] = system: Klebsiella pneumoniae GN 69; experiment: Growth-inhibition test with potassium clavulanate; type: cell-based; set-up: key: (+) means that the test bacterium grew; (-) means that the test bacterium did not grow; settings: T-1551 Na 0 μg/ml; potassium clavulanate alone by line b195,b197-b205: 100,(unlabelled),25,(unlabelled),6.25,(unlabelled),1.6,(unlabelled),0.4,(unlabelled) μg/ml
Method: as §1, §2

Escherichia coli TK-3 [3] = experiment: Minimum inhibitory concentration; type: cell-based; settings: TK3; Escherichia coli TK-3 strain
Method: (§3) The minimum inhibitory concentration of T-1551 Na or Methicillin sodium against Escherichia coli TK-3 strain or Kleosiella pneumoniae Y-4 strain was greater than 800 μg/ml in each case.

[4] = system: Klebsiella pneumoniae Y-4; experiment: Minimum inhibitory concentration; type: cell-based; settings: Y4; Klebsiella pneumoniae Y-4 strain
Method: as §3

[5] = system: Pseudomonas aeruginosa S-111; experiment: Growth-inhibition test on clinically isolated strain (agar, about 10^8 cells/ml); type: cell-based; set-up: key: (+) means that the test bacterium grew; (-) means that the test bacterium did not grow; settings: T-1551 Na 0 μg/ml; Methicillin sodium alone by line b92-b100: 3200,1600,800,400,200,100,50,25,12.5 μg/ml; 18 hours, 37° C
Method: as §1

Escherichia coli TK-3 [6] = experiment: as above; type: cell-based; set-up: key: (+) means that the test bacterium grew; (-) means that the test bacterium did not grow; settings: T-1551 Na 0 μg/ml; Methicillin sodium alone by line b32-b40: 3200,1600,800,400,200,100,50,25,12.5 μg/ml; 18 hours, 37° C
Method: as §1

[7] = system: Klebsiella pneumoniae Y-4; experiment: as above; type: cell-based; set-up: key: (+) means that the test bacterium grew; (-) means that the test bacterium did not grow; settings: T-1551 Na 0 μg/ml; Methicillin sodium alone by line b62-b70: 3200,1600,800,400,200,100,50,25,12.5 μg/ml; 18 hours, 37° C
Method: as §1

K. pneumoniae Y-4 = experiment: Effect of combined use on experimental infection in mice (protection); type: in vivo, mice (ICR strain) infected with K. pneumoniae; settings: challenge dose 5.7 × 10^7 cells/mouse, peritoneal; subcutaneous administration one and two hours after inoculation
From the text: (§4) Male mice (5 mice per group) of the ICR strain, 4 weeks of age, were peritoneally inoculated with the prescribed number of pathogenic bacteria suspended in 5% mucin. After one hour and two hours following the inoculation, test preparations shown in Table 5 were subcuataneously administered to examine the protection effect.

K. pneumoniae Y-53 = experiment: as above; type: in vivo, mice (ICR strain) infected with K. pneumoniae; settings: challenge dose 1.0 × 10^7 cells/mouse, peritoneal; subcutaneous administration one and two hours after inoculation
From the text: as §4

MIC (Escherichia coli TK-3 [3])	MIC [4]	SMILES	growth of the test bacterium (Escherichia coli GN 6299)	growth of the test bacterium [1]	growth of the test bacterium [2]	growth of the test bacterium [5]	growth of the test bacterium (Escherichia coli TK-3 [6])	growth of the test bacterium [7]	ED50 (protection effect) (K. pneumoniae Y-4)	ED50 (protection effect) (K. pneumoniae Y-53)
		O=C(O)[C@H]1/C(=C/CO)O[C@@H]2CC(=O)N21 [Potassium clavulanate, potassium clavulanate, reference compound]	- and +	+	- and +					
> 800 µg/mL	> 800 µg/mL	COc1cccc(OC)c1C(=O)N[C@@H]1C(=O)N2[C@@H]1SC(C)(C)[C@@H]2C(=O)O [Methicillin sodium, reference compound]				+	+	+	> 50 mg/mouse	> 46.6 mg/mouse
